# Laboratory results as given in patent US6670145B2, “Method for detection of total coliforms and E. coli” (The United States of America as represented by the …, priority 1991, dated 2003).
# Counter-ions that a name gives are not always drawn.
# Tests used:
# [1] = system: total coliform colonies; experiment: Other β-galactosidase substrates tested with IBDG in the selective base medium; format: cell-based, total coliforms; conditions: β-galactosidase substrate tested with IBDG in selective base medium
# Excerpt: (§1) The selective base medium without the substrates MUGal and IBDG (with or without agar) can be used with other β-galactosidase and β-glucuronidase substrates for the detection of total coliforms and/or E. coli. For example, each of three other β-galactosidase substrates (2-Nitrophenyl-β-D-galactopyranoside, Chlorophenol Red-β-galactopyranoside, and Resorufin-β-D-Galactopyranoside) have been tested with IBDG in this lab. […] We believe other combinations of substrates in this base medium would also work in the various embodiments described in this document, and different enzyme substrates (other than β-galactosidase and β-glucuronidase substrates) for specific coliforms could be used in this base medium because of its selectivity. The following guidance is provided for choosing ingredients for the alternative embodiments.
# [2] = system: Escherichia coli (EPA 206); experiment: Confirmatory spot test with enzyme substrates; format: cell-based; design: key to Reactions in Wells Containing: MUGal (fluorescence): +: A positive reaction is shown by fluorescence of the well under long wave ultraviolet light; key to Reactions in Wells Containing: IBDG (blue color): +: A positive reaction is shown by production of a blue color in the well; conditions: 35° C., up to 24 hours
# Method: (§2) One hundred microliter volumes of a bacterial suspension were placed in three wells of a sterile porcelain spot test plate or other suitable plate with wells. The bacterial suspension was obtained in one of the following ways:
# (§3) 1. A loopful of bacterial growth from a slant or an isolated colony from an agar plate was emulsified in a small amount of the liquid MI broth medium without substrates or other non-selective broths.
# (§4) 2. Aliquots of 100 μl of a bacterial culture grown over-night at 35° C. in a non-selective broth or the liquid medium without substrates were used.
# (§5) Sixty microliters of a freshly-prepared, filter-sterilized 16 mg/ml IBDG solution was added to one well of bacterial suspension, and 300 μl of a freshly-prepared, filter-sterilized 1 mg/ml MUGal solution was added to a second well. The third well, containing only bacterial suspension (negative control), was used as a comparator to distinguish positive and negative wells. Additional wells were inoculated with uninoculated medium, IBDG, and MUGal as controls. The plates were covered with sterile foil and incubated at 35° C. for up to 24 hours. […] This test could also be performed by adding all of the test liquids and culture or sample to a piece of filter paper or to an absorbent pad and observing the reactions.
# [3] = system: Escherichia coli (ATCC 25922); experiment: Confirmatory spot test with enzyme substrates; format: cell-based; design: key to Reactions in Wells Containing: MUGal (fluorescence): +: A positive reaction is shown by fluorescence of the well under long wave ultraviolet light; key to Reactions in Wells Containing: IBDG (blue color): +: A positive reaction is shown by production of a blue color in the well; conditions: 35° C., up to 24 hours
# Method: as §2, §3, §4, §5
# [4] = system: E. coli colonies; experiment: Other β-galactosidase substrates tested with IBDG in the selective base medium; format: cell-based; conditions: IBDG with each of three other β-galactosidase substrates in selective base medium
# Excerpt: as §1
# [5] = system: Enterobacter aerogenes (EPA 202); experiment: Confirmatory spot test with enzyme substrates; format: cell-based; design: key: +: A positive reaction is shown by fluorescence of the well under long wave ultraviolet light; conditions: 35° C., up to 24 hours, UV 366 nm
# Method: as §2, §3, §4, §5
# [6] = system: Klebsiella pneumoniae (EPA 207); experiment: Confirmatory spot test with enzyme substrates; format: cell-based; design: key: +: A positive reaction is shown by fluorescence of the well under long wave ultraviolet light; conditions: 35° C., up to 24 hours, UV 366 nm
# Method: as §2, §3, §4, §5
compound,measurement,setting,value
O=[N+]([O-])c1ccccc1O[C@@H]1O[C@H](CO)[C@H](O)[C@H](O)[C@H]1O [2-Nitrophenyl-β-D-galactopyranoside],colors of the total coliform colonies,[1],yellow
O=S1(=O)OC(c2ccc(O)c(Cl)c2)(c2ccc(O[C@@H]3O[C@H](CO)[C@H](O)[C@H](O)[C@H]3O)c(Cl)c2)c2ccccc21 (stereo partly drawn) [Chlorophenol Red-β-galactopyranoside],colors of the total coliform colonies,[1],orchid
"O=C(O)[C@H]1O[C@@H](Oc2c[nH]c3ccccc23)[C@H](O)[C@@H](O)[C@@H]1O [IBDG, Indoxyl-Beta-D-glucuronide, sodium salt or cyclohexylammonium salt]",Reactions in Wells Containing: IBDG (blue color),[2],+
same,Reactions in Wells Containing: IBDG (blue color),[3],+
same,color of the E. coli colonies,[4],varying shades of blue
"Cc1cc(=O)oc2cc(O[C@@H]3O[C@H](CO)[C@H](O)[C@H](O)[C@H]3O)ccc12 [MUGal, 4-Methylumbelliferyl-Beta-D-galactopyranoside]",Reactions in Wells Containing: MUGal (fluorescence),[2]; UV 366 nm,+
same,Reactions in Wells Containing: MUGal (fluorescence),[3]; UV 366 nm,+
same,Reactions in Wells Containing: MUGal (fluorescence),[5],+
same,Reactions in Wells Containing: MUGal (fluorescence),[6],+
O=c1ccc2nc3ccc(O[C@@H]4O[C@H](CO)[C@H](O)[C@H](O)[C@H]4O)cc3oc-2c1 [Resorufin-β-D-Galactopyranoside],colors of the total coliform colonies,[1],pink-red
